Experimental data published in patent publication US7112318B2, “Non-invasive diagnostic imaging technology for mitochondria dysfunction using radiolabeled lipophilic salts” (The Johns Hopkins University, priority 2002, dated 2006).

Experiments:
[1] = Stability in plasma after injection of the agent into mice (column-switch HPLC radiochromatography); assay type: in vivo
Protocol: Samples of mouse plasma were obtained from heparinized whole bloodcollected 5, 15 and 30 min p.i. of the tracer. To eliminate binding to plasma proteins, the plasma was added to solid urea to give a final concentration of 8M urea. The plasma-urea was loaded into a column switch HPLC system (Hilton 2000), in which the plasma passes through a small capture column (Oasis Sorbent, Waters Corp.), which retains lipophilic solutes, while polar species fail to bind and are detected as they pass through a positron detector. After four minutes, the capture column is free of plasma proteins and polar species. Then, the contents of the capture column was swept onto an analytical column (Prodigy ODS-3, Phenomenex) by 40% acetonitrile, 60% triethylamine acetate buffer pH 4.1 at 1 mL/min, where separation of the parent compound and lipophilic metabolites occurs. The effluent from the analytical column also passes through the positron flow detector. The proportion of each species is determined from the area under each chromatographic peak. Results: Radiochemical purity of the 18F-labeled FBnTP was more than 95%. […] FIG. 1 depicts the chromatogram of plasma collected 30 min p.i., and the parental compound incubated for a similar time period (30 min) in buffered saline. Plasma activity and parental compound peaked at same time (˜6 min).

[2] = Stability of fluorination: total bone uptake after i.v. injection; assay type: in vivo; conditions: mice, 5 and 30 min p.i., compared to mice injected with F-18 only
Protocol: Methods: Mice were injected via the tail vein with 25 μCi of F-18-PhC; 5 and 30 min p.i., the left or right femur bone was removed, and bone radioactivity together with standard (1:100 of injected dose) were counted in a gamma counter. A parallel group of mice was injected with free fluorides (F-18). Three mice of each group were studied at each time point. Radioactivity is represented as percentage of injected dosed (% ID) and total bone uptake was calculated as activity in femur bone×20.

[3] = tested on: Human lung carcinoma H549 cells; experiment: Mitochondria membrane potential (MMP)-dependent cellular uptake with CCCP; assay type: cell-based; conditions: 30 min
Protocol: The extent of MMP-dependent cellular uptake of F-18-FBnTP was assessed using CCCP, a known protonophore that selectively abolishes the MMP.
Methods: Human lung carcinoma H549 cells ([…]) were incubated with 0.1 μCi/ml F-18-FBnTP for 30 min. Samples of the suspension (1 mL) were transferred to Eppendorf s vials and placed in a 370C bath. Varying concentrations (30, 60, 90, 120 μM) of CCCP were added to the suspension. After 30 min of incubation with CCCP, the Eppendorf vials were centrifuged for 1 min, and activity in pellet and supernatant was immediately counted.

[4] = tested on: orthotopic NMU mammary tumor; experiment: Tracer uptake in NMU mammary tumor versus healthy gland and FCA inflammation; assay type: in vivo; conditions: NMU-bearing rats, 60 min after i.v., normalized to muscle
Description: The carcinogen nitrosomethyl urea (NMU) induces carcinoma tumors solely in the mammary gland of female rats. Therefore, the orthotopic NMU mammary tumor is an excellent model for evaluating tracer tumor selectivity by contrasting radioactivity accumulating in mammary gland infested with carcinoma cells and healthy mammary gland. Freund Complete Adjuvant (FCA) is a well_studied inflammation agent in rats Induction of FCA inflammation in NMU-bearing rats allows for direct quantitation of tracer capability to differentiate carcinoma from inflammation.
(§1) 0.1 ml of nitrosomethyl urea (NUM) was introduced i.p in female rats (150 g). When tumor reached an approximate size of 1 to 1.5 cm, FCA was injected (0.15 ml) to the hind limb footpad. Uptake assays were carried out 3 days thereafter. F-18-FBnTP (0.25 mCi) was injected via tail vein. Sixty minutes later tumor, inflamed tissue and healthy muscle tissue of the opposite limb (control) were collected on ice, weighed and counted in a gamma counter together with standards.

FCA-induced inflammation = experiment: Accumulation in FCA-induced inflammation tissue and healthy muscle; assay type: in vivo; conditions: rats, 3 days after administration of FCA
Protocol: as §1
The accumulation of the novel F-18-phosphonium cations, F-18-FBnTP and F-18-fluoropropyl triphenyl phosphonium (F-18-FPTP) in comparison with F-18-FDG in FCA-induced inflammation and healthy tissue is presented in Table 2. Induction of inflammation and activity counting were carried out as described above.

[5] = tested on: human lung carcinoma A549 cells; experiment: Detection of response of lung carcinoma tumor to taxeter in vivo; conditions: A549 tumor in nude mice, 48 hours after i.v. taxeter, 60 min after tracer, normalized to muscle
Protocol: Methods: 2×10^6 human lung carcinoma A549 cells were inoculated s.q. in 12 nude mice. When tumor size reached an approximate size of 5—10 mm, six mice were injected i.v. with taxeter and six mice served as control. Uptake assays were carried out 48 hours thereafter. 25 μCi of F-18-FBnTP were injected i.v., and tumor and muscle tissue was dissected after 60 min.

prostate carcinoma = experiment: Tumor selectivity in orthotopic model of prostate carcinoma; assay type: in vivo; conditions: nude mice, normalized to muscle
Protocol: Methods: 2×10^6 cells were injected, under anesthesia, into the prostate epithelial tissue of nude mice. When tumor reached an approximate size of 5 mm, uptake assays were performed as described above. Tumor selectivity of F-18-FBnTP and F-18-FDG was compared (3 mice in each group)

myocardium [6] = experiment: F-18-FBnTP uptake kinetics in the myocardium (dog PET); assay type: in vivo, Mongrel dogs
Protocol: Methods: Mongrel dogs (BW=35 kg) were injected with 3–4 mCi of F-18-FBnTP. Images were acquired on a GE 4096+ scanner (15 slices, 6.5 mm slice thickness). PET scans of increasing duration (15 sec to 20 min) were acquired over a total time of 85 min post-injection. Arterial blood samples (0.5 ml in volume) were collected every few seconds for the first 3 minutes and at gradually increasing intervals (1 to 10 min) for the remaining time of the imaging study. The vascular and myocardial kinetics of F-18-FBnTP was analyzed using the ROI method.

myocardium [7] = experiment: F-18-FBnTP myocardial accumulation in heart failure (pacing 210 bpm, 4 weeks, PET); assay type: in vivo, Mongrel dog
Protocol: Pacing of the mongrel dog heart at high rate (210 bpm) for a four weeks is a well-established model of heart failure. The advantage of this model is that the cardiomayopathy solely involve apoptosis without stenosis of coronary artery or related ischemia. Therefore, in this model the affect of apoptosis on FBnTP uptake can be dissected.
Methods: Preparation of dog and data acquisition was performed as described above. Mongrel dog was installed with a pacemaker in the rib case and underwent FBnTP PET scan (presented above). Following the baseline scan, the dog_s heart was paced at a rate of 210 bpm for 4 weeks and a second scan was acquired.
Quantitation of FBnTP in the myocardium was performed using region of interest placed on co-registered myocardial images, whose activity was normalized to the injected dose, before and after pacing. An example for ROI placement is illustrated in FIG. 18.

[8] = Biodistribution in mice 60 min after i.v. injection; conditions: 60 min after iv. injection
Protocol: Three to five mice were used for the biodistribution study of each tracer. Nonanesthetized animals were injected i.v. with tracer solution (FBnTP or FPTP, TPMP 25 μCi; MIBI 40 μCi; TPP 2 μCi, all in a volume of 0.2 mL saline) then killed by neck dislocation at 60 min after injection. The organs and tissues of interest were removed and counted by a radioactivity counter along with standards (1:1000) (LKB Wallac, 1282 Compugamma CS).

Compound: [18F]c1ccc(C[P+](c2ccccc2)(c2ccccc2)c2ccccc2)cc1 [Example F-18-FBnTP, F-18-fluorobenzyl triphenyl phosphonium]
- stable after intravenous injection in vivo ([1]; mice, plasma radiochromatograms): more than 30 min
- single radio-peak in plasma, share of total activity ([1]; mouse plasma after i.v. injection, no other peak observed): 97%
- total bone uptake [2]: minimal bone uptake
- total bone uptake ([2]; listed as F-18-PhC): marginal bone uptake
- cellular uptake in the presence of varying concentrations of CCCP ([3]; CCCP 30, 60, 90, 120 μM): dose-dependent decrease
- MMP-dependent share of cellular uptake ([3]; CCCP 30-120 μM): 86%
- uptake in tumor relative to healthy gland [4]: 4 times
- uptake in tumor relative to inflammation ([4]; FCA inflammation 3 days): 3 times
- Inf/Control (FCA-induced inflammation): 0.42 ± 0.40
- accumulation, Blood (FCA-induced inflammation): 0.10 ± 0.01 % ID/g tissue
- accumulation, Control (healthy muscle) (FCA-induced inflammation): 0.76 ± 0.21 % ID/g tissue
- accumulation, Inflammation (FCA-induced inflammation): 0.27 ± 0.22 % ID/g tissue
- decrease in accumulation in tumor after taxeter, compared to non-treated mice [5]: ~50%
- uptake ratio of malignant-to-normal prostate tissue (prostate carcinoma): 2.5
- accumulation in the myocardium, time to equilibrium (myocardium [6]; dog PET, 85 min scan): reached equilibrium within a few minutes
- washout from the blood pool (myocardium [6]; dog, arterial blood samples): rapid washout
- Ratio P/B (myocardium [7]; Slices 36–37, ROI1): 0.62
- Ratio P/B (myocardium [7]; Slices 36–37, ROI2): 0.91
- Ratio P/B (myocardium [7]; Slices 36–37, ROI3): 0.85
- Ratio P/B (myocardium [7]; Slices 46–49, ROI1): 0.56
- myocardial uptake, Baseline (myocardium [7]; Slices 46–49, ROI1, average activity over 36 to 85 min per slice): *108.62 % of injected dose
- Ratio P/B (myocardium [7]; Slices 46–49, ROI2): 0.76
- Ratio P/B (myocardium [7]; Slices 46–49, ROI3): 0.82
- decrease in uptake in the inferior wall after pacing (myocardium [7]; dog, 4-wks pacing at 210 bpm versus baseline): 40–60%
- biodistribution, blood [8]: 0.02 ± 0.00 % ID/g
- biodistribution, brain [8]: 0.07 ± 0.01 % ID/g
- biodistribution, heart [8]: 35.39 ± 5.02 % ID/g
- biodistribution, kidney [8]: 4.89 ± 0.88 % ID/g
- biodistribution, liver [8]: 3.00 ± 1.12 % ID/g
- biodistribution, lung [8]: 7.38 ± 1.55 % ID/g
- biodistribution, muscle [8]: 4.31 ± 1.30 % ID/g
- biodistribution, spleen [8]: 1.79 ± 0.57 % ID/g
